Test results: patent US20020115699A1, “Method for treating renal disease” (SmithKline Beecham p.l.c., priority 1994, published 2002)
Values joined by “and” are separate entries in the source; they are usually repeats but may differ in a detail not shown here. Equal values may be shown once.

Legend:
obese Zucker fa/fa rats = assay: Renal histopathology after 3 months dietary administration in obese Zucker fa/fa rats; assay type: in vivo, rat; parameters: key to Hydronephrosis (histopathological severity, kidney) / Chronic Nephropathy (histopathological severity, kidney): 0: None seen; ±: Minimal; +: Mild; + +: Moderate; + + +: Marked
Description: Obese Zucker rats are known to develop chronic nephropathy in addition to hyperlipidaemia, hyperinsulinaemia and peripheral insulin resistance (Kasiske et al 1985).
5-[4- [2-(N-methyl-N-(2-pyridyl)amino)ethoxy]benzyl]thiazolidine-2,4-dione (herein after referred to as ‘test compound’) was administered to 2-3 month old obese Zucker fa/fa rats by dietary administration to provide a daily dose over a period of 3 months ranging from 2.0-7.0 μmole/kg body weight. A group of age-matched obese Zucker fa/fa rats were given the same diet without the addition of the test compound, as was a group of lean Fa/? rats. At the end of the study, all of the control Zucker fa/fa rats had chronic nephropathy which involved dilated tubules, atrophied or hyperplastic tubular epithelial cells, thickened tubular basement membranes, segmented glomeruli or global glomerulosclerosis.
In the corresponding lean animals, 3/15 animals, a minimal degree of chronic nephropathy was seen.
Characteristically this involved dilation of the kidney pelvis.

[1] = test system: Zucker fatty (fa/fa) rats; assay: Systolic blood pressure (tail cuff) in 9 month Zucker rat study; assay type: in vivo; settings: for SYSTOLIC BLOOD PRESSURE: Zucker fatty rats
Description: A second study was performed in Zucker rats over a period of 9 months to investigate the longitudinal effects of the drug on systolic blood pressure and various indices of renal function, two of which are exemplified here. In one arm of the study, the drug was given in the diet (50 μmole/kg of diet) from aged 6-7 weeks in Zucker fatty (fa/fa) rats, whilst in a second arm of the study, drug treatment as above was delayed until proteinuria had become established after 4 months, indicative of structural damage already present in the kidneys. A third group of Zucker fatty rats and a further group of lean rats were given diet alone throughout the period of study.
After dosing with the test compound, at monthly intervals measurements were made of systolic blood pressure, urinary total protein and urinary N-acetyl β-D-glucosaminidase (NAG) activity.
Rats were enclosed in custom-built restrainers and placed on a shelf in a warming cabinet, whose temperature was controlled at approximately 30° C. An inflatable cuff with integral pulse sensor was attached to the tail of each rat. After warming for 20-30 min the tail cuff was inflated and deflated automatically and a measurement of systolic blood pressure made using an IITC Non-Invasive Blood Pressure Monitor. This cycle was repeated several times for each rat until stable values of blood pressure were obtained.
In the tables below, results are given as mean values for the group ±the standard error of the mean. Results have been analysed by one way ANOVA and significant differences from the Zucker fatty rat control group have been indicated by an asterisk.

[2] = test system: Zucker fatty (fa/fa) rats; assay: Urinary total protein (Bio-Rad dye-binding assay, 24 h urine) in 9 month Zucker rat study; assay type: in vivo; settings: for URINARY PROTEIN CONCENTRATION: Zucker fatty rats, 50 μmol/kg of diet from age 6-7 weeks (prior to renal complications), mean ± SEM
Description: A second study was performed in Zucker rats over a period of 9 months to investigate the longitudinal effects of the drug on systolic blood pressure and various indices of renal function, two of which are exemplified here. […] A third group of Zucker fatty rats and a further group of lean rats were given diet alone throughout the period of study. After dosing with the test compound, at monthly intervals measurements were made of systolic blood pressure, urinary total protein and urinary N-acetyl β-D-glucosaminidase (NAG) activity. Twenty-four hour urine collections, made in metabolism cages, were aliquoted and frozen at −70° C. until required for assay. Urinary protein concentration was measured using the Bio-Rad protein assay as modified for use in a 96-well microtitre plate. The assay is a dye-binding assay based on the differential colour change of a dye in response to various concentrations of protein (Bradford, Anal. Biochem., 72, 248, 1976). After a period of incubation with Dye Reagent, diluted urine samples are read at an optical density of 595 nm using a Molecular Devices multiplate reader.

[3] = individual obese Zucker fa/fa rats, test compound in diet 2.0-7.0 μmole/kg body weight daily, 3 months
[4] = Zucker fatty (fa/fa) rats treated from age 6-7 weeks for 9 months via the diet

## CN(CCOc1ccc(CC2SC(=O)NC2=O)cc1)c1ccccn1 (centres unmarked) [Test Compound, 5-[4-[2-(N-methyl-N-(2-pyridyl)amino)ethoxy]benzyl]thiazolidine-2,4-dione]
Obese Zucker fa/fa rats; [3]
  Chronic Nephropathy (histopathological severity, kidney): + and ± (8×) and 0 and + +
  Hydronephrosis (histopathological severity, kidney): 0
Obese Zucker fa/fa rats; obese Zucker fa/fa rats, 3 months in diet, compared to control Zucker fa/fa rats
  incidence and degree of chronic nephropathy: reduction in the incidence and degree of chronic nephropathy
Obese Zucker fa/fa rats; obese Zucker fa/fa rats, 3 months in diet, control 4/9 mild-moderate
  hydronephrosis: No hydronephrosis was seen
[1]; [4]
  development of hypertension: prevented the development of hypertension
[1]; 50 μmol/kg of diet from age 6-7 weeks (prior to renal complications), treatment duration 0 months, mean ± SEM
  SYSTOLIC BLOOD PRESSURE: 102 ± 3 mm Hg
[1]; 50 μmol/kg of diet from age 6-7 weeks (prior to renal complications), treatment duration 1 month, mean ± SEM
  SYSTOLIC BLOOD PRESSURE: 110 ± 3 mm Hg
[1]; 50 μmol/kg of diet from age 6-7 weeks (prior to renal complications), treatment duration 2 months, mean ± SEM
  SYSTOLIC BLOOD PRESSURE: 122 ± 4 mm Hg
[1]; 50 μmol/kg of diet from age 6-7 weeks (prior to renal complications), treatment duration 3 months, mean ± SEM
  SYSTOLIC BLOOD PRESSURE: 122 ± 4 mm Hg
[1]; 50 μmol/kg of diet from age 6-7 weeks (prior to renal complications), treatment duration 4 months, mean ± SEM
  SYSTOLIC BLOOD PRESSURE: 126 ± 6 mm Hg
[1]; 50 μmol/kg of diet from age 6-7 weeks (prior to renal complications), treatment duration 5 months, mean ± SEM
  SYSTOLIC BLOOD PRESSURE: 131 ± 4 mm Hg
[1]; 50 μmol/kg of diet from age 6-7 weeks (prior to renal complications), treatment duration 6 months, mean ± SEM
  SYSTOLIC BLOOD PRESSURE: 128 ± 3 mm Hg
[1]; 50 μmol/kg of diet from age 6-7 weeks (prior to renal complications), treatment duration 7 months, mean ± SEM
  SYSTOLIC BLOOD PRESSURE: 125 ± 6 mm Hg
[1]; 50 μmol/kg of diet from age 6-7 weeks (prior to renal complications), treatment duration 8 months, mean ± SEM
  SYSTOLIC BLOOD PRESSURE: 133 ± 5 mm Hg
[1]; 50 μmol/kg of diet from age 6-7 weeks (prior to renal complications), treatment duration 9 months, mean ± SEM
  SYSTOLIC BLOOD PRESSURE: 143 ± 4 mm Hg
[1]; 50 μmol/kg of diet started once renal complications established (after 4 months), treatment duration 0 months, mean ± SEM
  SYSTOLIC BLOOD PRESSURE: 146 ± 4 mm Hg
[1]; 50 μmol/kg of diet started once renal complications established (after 4 months), treatment duration 1 month, mean ± SEM
  SYSTOLIC BLOOD PRESSURE: 140 ± 5 mm Hg
[1]; 50 μmol/kg of diet started once renal complications established (after 4 months), treatment duration 2 months, mean ± SEM
  SYSTOLIC BLOOD PRESSURE: 134 ± 3 mm Hg
[1]; 50 μmol/kg of diet started once renal complications established (after 4 months), treatment duration 3 months, mean ± SEM
  SYSTOLIC BLOOD PRESSURE: 144 ± 3 mm Hg
[1]; 50 μmol/kg of diet started once renal complications established (after 4 months), treatment duration 4 months, mean ± SEM
  SYSTOLIC BLOOD PRESSURE: 139 ± 3 mm Hg
[1]; 50 μmol/kg of diet started once renal complications established (after 4 months), treatment duration 5 months, mean ± SEM
  SYSTOLIC BLOOD PRESSURE: 146 ± 6 mm Hg
[1]; 50 μmol/kg of diet started once renal complications established (after 4 months), treatment duration −1 month (before start of drug), mean ± SEM
  SYSTOLIC BLOOD PRESSURE: 141 ± 6 mm Hg
[1]; 50 μmol/kg of diet started once renal complications established (after 4 months), treatment duration −2 months (before start of drug), mean ± SEM
  SYSTOLIC BLOOD PRESSURE: 138 ± 7 mm Hg
[1]; 50 μmol/kg of diet started once renal complications established (after 4 months), treatment duration −3 months (before start of drug), mean ± SEM
  SYSTOLIC BLOOD PRESSURE: 123 ± 5 mm Hg
[1]; 50 μmol/kg of diet started once renal complications established (after 4 months), treatment duration −4 months (before start of drug), mean ± SEM
  SYSTOLIC BLOOD PRESSURE: 106 ± 3 mm Hg
[1]; drug treatment commenced after proteinuria had become established
  SYSTOLIC BLOOD PRESSURE: prevented from rising further
[2]; [4]
  rate of development of proteinuria: markedly reduced
[2]; treatment duration 0 months
  URINARY PROTEIN CONCENTRATION: 226 ± 15 µg/h
[2]; treatment duration 1 month
  URINARY PROTEIN CONCENTRATION: 373 ± 22 µg/h
[2]; treatment duration 2 months
  URINARY PROTEIN CONCENTRATION: 402 ± 22 µg/h
[2]; treatment duration 3 months
  URINARY PROTEIN CONCENTRATION: 221 ± 32 µg/h
[2]; treatment duration 4 months
  URINARY PROTEIN CONCENTRATION: 376 ± 54 µg/h
[2]; treatment duration 5 months
  URINARY PROTEIN CONCENTRATION: 1573 ± 105 µg/h
[2]; treatment duration 6 months
  URINARY PROTEIN CONCENTRATION: 1585 ± 147 µg/h
[2]; treatment duration 7 months
  URINARY PROTEIN CONCENTRATION: 2124 ± 293 µg/h
